Measured values taken from patent publication US20190290673A1, “COMPOSITIONS AND METHODS FOR THE TREATMENT OF HBV INFECTION” (priority 2016, published 2019).

Columns and labels:
[1] = Whole body weight change in transgenic HBV mice; assay type: in vivo; details: per os, qd x 14 d, dosage 'high'; relative to vehicle values
Method: (§1) The goal of this study was to evaluate the efficacy of exemplary compounds for the treatment of HBV infection in transgenic mice. Homozygous […] transgenic HBV mice (21.6±2.8 g) originally obtained from the laboratory of Dr. Frank Chisari (Scripps Research Institute, LaJolla, Calif.) and derived from founder 1.3.32 were used in this study. Female and male HBV transgenic mice were block-randomized to the treatment groups (Table 1). Compounds of Formula (Ie) and Formula (If) were administered at 0.1 mL/30-gram mouse by oral gavage. Adefovir dipivoxil (ADV) was prepared as a solution of 2 mg/mL in 0.025 M sodium citrate, wherein 0.1 mL was administered by oral gavage (per os, p.o.) per 30 g mouse for a dosage of […].
(§2) Treatment was initiated at day 1. After the last treatment on day 14, necropsy was performed to obtain tissues to assay liver HBV DNA and sera for HBV antigens HBeAg and HBsAg. Weights were obtained on days −1, 1 (day of treatment initiation), 3, 7, and 14. Data were analyzed by one-way analysis of variance. Two animals died due to oral gavage treatment at day 7, one in group 1 and another in group 3. FIGS. 2A-2B show the effect of Formula (Ie) and Formula (If) on liver HBV DNA levels using Southern blot hybridization (FIG. 2A) and semi-quantitative PCR (FIG. 2B) as compared to vehicle and ADV.

HBV = assay: Efficacy for treatment of HBV infection in transgenic HBV mice (liver HBV DNA, serum HBeAg/HBsAg); assay type: in vivo; details: per os, qd x 14 d, dosage 'high'; for liver HBV DNA levels: Southern blot hybridization and semi-quantitative PCR, compared to vehicle and ADV; for serum levels of HBeAg / serum levels of HBsAg: relative to vehicle values
Method: as §1, §2

Structure (SMILES) | whole body weight change [1] | liver HBV DNA levels (HBV) | serum levels of HBeAg (HBV) | serum levels of HBsAg (HBV)
CO[C@H]1C(O[P@](=O)(OC[C@H]2O[C@@H](n3cnc4c(N)ncnc43)CC2O)SCOC(=O)OC(C)C)[C@@H](CO)O[C@H]1n1ccc(=O)[nH]c1=O (some centres unmarked) [Formula (Ie)] | Neither Formula (Ie) or Formula (If) had an effect | lowered HBV DNA levels in the liver | Neither Formula (Ie) or Formula (If) had an effect | Neither Formula (Ie) or Formula (If) had an effect
CO[C@H]1C(O[P@@](=O)(OC[C@H]2O[C@@H](n3cnc4c(N)ncnc43)CC2O)SCOC(=O)OC(C)C)[C@@H](CO)O[C@H]1n1ccc(=O)[nH]c1=O (some centres unmarked) [Formula (If)] | Neither Formula (Ie) or Formula (If) had an effect | lowered HBV DNA levels in the liver | Neither Formula (Ie) or Formula (If) had an effect | Neither Formula (Ie) or Formula (If) had an effect
